Results on 27 molecules are retold here after US6984643B2, “2,5-substituted pyrimidine derivatives-CCR-3 receptor antagonists” (Roche Palo Alto LLC, priority 2002, dated 2006).

For one test, the target named is T1, CCR-3 receptor (Homo sapiens, UniProt P51677).
T1 construct: expressed in transfected cells; host or cells: L1.2 (murine pre-B lymphoma line)
T1 sequence (P51677 1-355): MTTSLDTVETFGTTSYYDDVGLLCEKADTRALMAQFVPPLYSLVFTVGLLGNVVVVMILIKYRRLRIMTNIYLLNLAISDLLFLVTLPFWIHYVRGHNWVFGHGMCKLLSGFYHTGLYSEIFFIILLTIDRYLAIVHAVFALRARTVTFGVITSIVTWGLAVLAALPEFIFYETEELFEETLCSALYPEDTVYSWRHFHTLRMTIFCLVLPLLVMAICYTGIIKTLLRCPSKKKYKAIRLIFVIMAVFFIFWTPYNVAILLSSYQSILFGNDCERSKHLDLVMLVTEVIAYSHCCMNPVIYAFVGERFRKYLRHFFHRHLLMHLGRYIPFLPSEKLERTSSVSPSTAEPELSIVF
The test can be described thus: CCR-3 Receptor Binding Assay in vitro (inhibition of 125I eotaxin binding to CCR-3 L1.2 transfectant cells). Conditions: concentration reducing 125I-eotaxin binding to CCR-3 L1.2 transfected cells by 50%; read-out: CCR-3 IC50. As for the experimental part: The CCR-3 antagonistic activity of the compounds of the invention was determined by their ability to inhibit the binding of ^125I eotaxin to CCR-3 L1.2 transfectant cells (see Ponath, P. D. et al., J. Exp. Med., Vol. 183, 2437-2448, (1996)).
The assay was performed in Costar 96-well polypropylene round bottom plates. Test compounds were dissolved in DMSO and then diluted with binding buffer (50 mM HEPES, 1 mM CaCl2, 5 mM MgCl2, 0.5% bovine serum albumin (BSA), 0.02% sodium azide, pH 7.24) such that the final DMSO concentration was 2%. Each well was filled with 25 μl of the test solution or only buffer with DMSO (control samples) followed by the addition of 25 μl of ^125I-eotaxin (100 pmol) (NEX314, New England Nuclear, Boston, Mass.) and 1.5×10^5 of the CCR-3 L1.2 transfected cells in 25 μl binding buffer. The final reaction volume was 75 μl.
After incubating the reaction mixture for 1 h at room temperature, the reaction was terminated by filtering the reaction mixture through polyethylenimine treated Packard Unifilter GF/C filter plate (Packard, Chicago, Ill.). The filters were washed four times with ice cold wash buffer containing 10 mM HEPES and 0.5M sodium chloride (pH 7.2) and dried at 65° C. for approximately 10 min. 25 μl/well of Microscint-20™ scintillation fluid (Packard) was added and the radioactivity retained on the filters was determined by using the Packard TopCount™.
The IC50 value (concentration of test compound required to reduce ^125I-eotaxin binding to the CCR-3 L 1.2 transfected cells by 50%) for compounds in Table I of the invention was between 0.02 and 200 μM, preferably between 0.02 and 10 μM.
Turning to `COc1ccc(-c2cnc(CCC(=O)NCC3CCCN(Cc4ccc(Cl)c(Cl)c4)C3)nc2)cc1OC` (stereo not drawn) [Compound 10, N-[1-(3,4-dichloro-benzyl)-piperidin-3-ylmethyl]-3-[5-(3,4-dimethoxy-phenyl)-pyrimidin-2-yl]-propionamide], the IC50 (commonly the concentration that inhibits the measured activity by half) turned out to be 0.164 µM.

Turning to `COc1ccc(-c2cnc(OCC(=O)NCC3CCCN(Cc4ccc5c(c4)OCO5)C3)nc2)cc1OC` (stereo not drawn) [Compound 51, N-(1-benzo[1,3]-dioxol-5-ylmethyl-piperidin-3-ylmethyl)-2-[5-(3,4-dimethoxy-phenyl)-pyrimidin-2-yloxy]-acetamide], the IC50 came to 4.64 µM.

For the molecule `COc1ccc(-c2cnc(CCC(=O)NCC3CCCN(Cc4ccc5c(c4)OCO5)C3)nc2)cc1` (stereo not drawn) [Compound 44, N-(1-benzo[1,3]-dioxol-5-ylmethyl-piperidin-3-ylmethyl)-3-[5-(4-methoxy-phenyl)-pyrimidin-2-yl]-propionamide], the IC50 worked out at 2.08 µM.

On to `O=C(CSc1ncc(-c2ccccc2)cn1)NCC1CCCN(Cc2ccc3c(c2)OCO3)C1` (stereo not drawn) [Compound 41, N-(1-benzo[1,3]-dioxol-5-ylmethyl-piperidin-3-ylmethyl)-2-(5-phenyl-pyrimidin-2-ylsulfanyl)-acetamide], for which the IC50 was found to be 1.56 µM.

With `O=C(CSc1ncc(-c2ccccc2)cn1)NCC1CCCN(Cc2ccc(Cl)c(C(F)(F)F)c2)C1` (stereo not drawn) [Compound 48, N-[1-(4-chloro-3-trifluoromethyl-benzyl)-piperidin-3-ylmethyl]-2-(5-phenyl-pyrimidin-2-yl-sulfanyl)-acetamide], the half-maximal inhibitory concentration (IC50) was 2.41 µM.

Turning to `COc1cccc(-c2cnc(OCC(=O)NCC3CCCN(Cc4ccc5c(c4)OCO5)C3)nc2)c1` (stereo not drawn) [Compound 62, N-(1-benzo[1,3]-dioxol-5-ylmethyl-piperidin-3-ylmethyl)-2-[5-(3-methoxy-phenyl)-pyrimidin-2-yloxy]-acetamide], the IC50 came out at 128 µM.

Take `COc1cc(-c2cnc(CCC(=O)NCC3CCCN(Cc4cccc(Cl)c4Cl)C3)nc2)cc(OC)c1OC` (stereo not drawn) [Compound 57, N-[1-(2,3-dichloro-benzyl)-piperidin-3-ylmethyl]-3-[5-(3,4,5-trimethoxy-phenyl)-pyrimidin-2-yl]-propionamide]: the 50% inhibitory concentration (IC50) is 12 µM.

Regarding `COc1ccc(-c2cnc(SCC(=O)NCC3CCCN(Cc4ccccc4)C3)nc2)cc1OC` (stereo not drawn) [Compound 36, N-(1-benzyl-piperidin-3-ylmethyl)-2-[5-(3,4-dimethoxy-phenyl)-pyrimidin-2-ylsulfanyl]-acetamide], the IC50 is 1.06 µM.

For the molecule `COc1ccc(-c2cnc(CCC(=O)NCC3CCCN(Cc4cccc(Cl)c4Cl)C3)nc2)cc1` (stereo not drawn) [Compound 23, N-[1-(2,3-dichloro-benzyl)-piperidin-3-ylmethyl]-3-[5-(4-methoxy-phenyl)-pyrimidin-2-yl]-propionamide], the half-maximal inhibitory concentration (IC50) worked out at 0.403 µM.

With `COc1ccc(-c2cnc(OCC(=O)NCC3CCCN(Cc4cccc(Cl)c4Cl)C3)nc2)cc1` (stereo not drawn) [Compound 46, N-[1-(2,3-dichloro-benzyl)-piperidin-3-ylmethyl]-2-[5-(4-methoxy-phenyl)-pyrimidin-2-yloxy]-acetamide], the IC50 turned out to be 2.11 µM.

As to `COc1ccc(-c2cnc(CCC(=O)NCC3CCCN(Cc4ccc(Br)c(Br)c4)C3)nc2)cc1OC` (stereo not drawn) [Compound 8, N-[1-(3,4-dibromo-benzyl)-piperidin-3-ylmethyl]-3-[5-(3,4-dimethoxy-phenyl)-pyrimidin-2-yl]-propionamide], the concentration for half-maximal inhibition (IC50) is 0.107 µM.

In the case of `COc1ccc(-c2cnc(CCC(=O)NCC3CCCN(Cc4ccc(Cl)c(Cl)c4)C3)nc2)cc1OC` (stereo not drawn) [Compound 9, N-[1-(3,4-dichloro-benzyl)-piperidin-3-ylmethyl]-3-[5-(3,4-dimethoxy-phenyl)-pyrimidin-2-yl]-propionamide], the IC50 was found to be 0.152 µM.

For the molecule `COc1ccc(-c2cnc(SCC(=O)NCC3CCCN(Cc4ccc(F)c(F)c4)C3)nc2)cc1` (stereo not drawn) [Compound 39, N-[1-(3,4-difluoro-benzyl)-piperidin-3-ylmethyl]-2-[5-(4-methoxy-phenyl)-pyrimidin-2-ylsulfanyl]-acetamide], the half-inhibitory concentration (IC50) amounted to 1.37 µM.

In the case of `O=C(CSc1ncc(-c2ccccc2)cn1)NCC1CCCN(Cc2ccc(O)c(O)c2)C1` (stereo not drawn) [Compound 38, N-[1-(3,4-dihydroxy-benzyl)-piperidin-3-ylmethyl]-2-(5-phenyl-pyrimidin-2-ylsulfanyl)-acetamide], the IC50 turned out to be 1.35 µM.

Regarding `COc1ccc(-c2cnc(SCC(=O)NCC3CCCN(Cc4cc(Cl)c(Cl)s4)C3)nc2)cc1OC` (stereo not drawn) [Compound 64, N-[1-(4,5-dichloro-thiophen-2-ylmethyl)-piperidin-3-ylmethyl]-2-[5-(3,4-dimethoxy-phenyl)-pyrimidin-2-ylsulfanyl]-acetamide], the IC50 worked out at 0.081 µM.

On to `COc1ccc(-c2cnc(SCC(=O)NCC3CCCN(Cc4ccc5cc[nH]c5c4)C3)nc2)cc1OC` (stereo not drawn) [Compound 1], for which the IC50 stood at 0.025 µM.

For the molecule `O=C(CSc1ncc(-c2ccccc2)cn1)NCC1CCCN(Cc2ccc(Cl)c(Cl)c2)C1` (stereo not drawn) [Compound 42, N-[1-(3,4-dichloro-benzyl)-piperidin-3-ylmethyl]-2-(5-phenyl-pyrimidin-2-ylsulfanyl)-acetamide], the IC50 worked out at 1.56 µM.

As for `COc1ccc(-c2cnc(SCC(=O)NCC3CCCN(Cc4ccc5ccccc5c4)C3)nc2)cc1OC` (stereo not drawn) [Compound 15, 2-[5-(3,4-dimethoxy-phenyl)-pyrimidin-2-ylsulfanyl]-N-(1-naphthalen-2-yl-methyl-piperidin-3-ylmethyl)-acetamide], the IC50 amounted to 0.263 µM.

For the molecule `O=C(CSc1ncc(-c2ccccc2)cn1)NCC1CCCN(Cc2ccc(F)c(F)c2)C1` (stereo not drawn) [Compound 49, N-[1-(3,4-difluoro-benzyl)-piperidin-3-ylmethyl]-2-(5-phenyl-pyrimidin-2-ylsulfanyl)-acetamide], the IC50 turned out to be 2.81 µM.

With `COc1ccc(-c2cnc(SCC(=O)NCC3CCCN(Cc4ccc(Cl)c(F)c4)C3)nc2)cc1OC` (stereo not drawn) [Compound 33, N-[1-(4-chloro-3-fluoro-benzyl)-piperidin-3-ylmethyl]-2-[5-(3,4-dimethoxy-phenyl)-pyrimidin-2-ylsulfanyl]-acetamide], the IC50 was determined as 0.973 µM.

`COc1ccc(-c2cnc(OCC(=O)NCC3CCCN(Cc4cccc(Cl)c4Cl)C3)nc2)cc1OC` (stereo not drawn) [Compound 26, N-[1-(2,3-dichloro-benzyl)-piperidin-3-ylmethyl]-2-[5-(3,4-dimethoxy-phenyl)-pyrimidin-2-yloxy]-acetamide]: the IC50 was determined as 0.507 µM.

Consider `COc1ccc(-c2cnc(SCC(=O)NCC3CCCN(Cc4cc(Br)c(Br)s4)C3)nc2)cc1OC` (stereo not drawn) [Compound 63, N-[1-(4,5-dibromo-thiophen-2-ylmethyl)-piperidin-3-ylmethyl]-2-[5-(3,4-dimethoxy-phenyl)-pyrimidin-2-ylsulfanyl]-acetamide], for which the IC50 amounted to 0.066 µM.

With `COc1ccc(-c2cnc(SCC(=O)NCC3CCCN(Cc4ccc5c(c4)OCO5)C3)nc2)cc1OC` (stereo not drawn) [Compound 13, N-(1-benzo[1,3]-dioxol-5-ylmethyl-piperidin-3-ylmethyl]-2-[5-(3,4-dimethoxy-phenyl)-pyrimidin-2-ylsulfanyl]-acetamide], the IC50 is 0.205 µM.

As to `COc1ccc(-c2cnc(SCC(=O)NCC3CCCN(Cc4ccc(Cl)c(Cl)c4)C3)nc2)cc1OC` (stereo not drawn) [Compound 2, N-[1-(3,4-dichloro-benzyl)-piperidin-3-ylmethyl]-2-[5-(3,4-dimethoxy-phenyl)-pyrimidin-2-ylsulfanyl]-acetamide], the IC50 was 0.029 µM.

`COc1ccc(-c2cnc(CCC(=O)NCC3CCCN(Cc4ccc5c(c4)CCC5)C3)nc2)cc1OC` (stereo not drawn) [Compound 34, 3-[5-(3,4-dimethoxy-phenyl)-pyrimidin-2-yl]-N-(1-indan-5-yl-methyl-piperidin-3-ylmethyl)-propion-amide]: the IC50 was determined as 0.994 µM.

As to `COc1cccc(-c2cnc(OCC(=O)NCC3CCCN(Cc4cccc(Cl)c4Cl)C3)nc2)c1` (stereo not drawn) [Compound 52, N-[1-(2,3-dichloro-benzyl)-piperidin-3-ylmethyl]-2-[5-(3-methoxy-phenyl)-pyrimidin-2-yloxy]-acetamide], the IC50 amounted to 5.74 µM.

Staying with this test, now noted: stated in text for the compound where Z is —C(═O)—; assay not given; read-out: IC50.
Consider `COc1ccc(-c2cnc(SCC(=O)NCC3CCCN(C(=O)CCc4ccc(Cl)cc4)C3)nc2)cc1OC` (racemic) [Compound 70, (±)-N-{1-[3-(4-Chlorophenyl)-propionyl]-piperidin-3-ylmethyl}-2-[5-(3,4-dimethoxy-phenyl)-pyrimidin-2-ylsulfanyl]-acetamide], for which the 50% inhibitory concentration (IC50) came out at 1.92 µM.
